Assay results as given in patent US10093623B2, “Cyclic amides as MetAP-2 inhibitors” (MERCK PATENT GmbH, priority 2012, dated 2018).

What follows are compounds tested against MetAP-2 (Homo sapiens, UniProt P50579) (assay: MetAP-2 activity measurement (coupled enzymatic reactions, Met-Arg-Ser substrate, dianisidine detection at 450 nm)). Details: Inhibition of MetAP-2; read-out: IC50 enzyme.
Format: biochemical
Method in brief: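 Coupled continuous assay with Met-Arg-Ser tripeptide substrate: released methionine oxidised by L-amino acid oxidase to give H2O2, which peroxidase uses to oxidise dianisidine, followed at 450 nm. Activity taken as slope of absorbance versus time over the visually linear region; dianisidine extinction coefficient converts to mol Met per time.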

MetAP-2, sequence (P50579 whole entry, species assumed): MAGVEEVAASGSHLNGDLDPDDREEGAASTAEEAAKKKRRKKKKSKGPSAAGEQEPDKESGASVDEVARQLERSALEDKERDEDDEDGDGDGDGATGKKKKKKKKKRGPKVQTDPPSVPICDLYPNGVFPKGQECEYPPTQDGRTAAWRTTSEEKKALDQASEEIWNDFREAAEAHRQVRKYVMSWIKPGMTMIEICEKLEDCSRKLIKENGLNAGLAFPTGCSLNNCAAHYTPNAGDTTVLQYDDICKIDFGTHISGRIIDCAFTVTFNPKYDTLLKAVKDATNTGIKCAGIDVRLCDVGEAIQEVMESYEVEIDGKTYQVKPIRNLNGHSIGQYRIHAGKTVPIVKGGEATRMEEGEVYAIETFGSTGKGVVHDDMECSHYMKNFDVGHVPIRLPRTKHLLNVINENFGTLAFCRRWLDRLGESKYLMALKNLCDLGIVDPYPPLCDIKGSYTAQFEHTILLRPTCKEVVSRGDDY

SMILES	IC50
OC1(CNCc2cc(F)cc(F)c2)CCCN(Cc2ccccc2)C1 (centres unmarked) [B44, 1-Benzyl-3-[(3,5-difluorobenzylamino)methyl]-piperidin-3-ol]	> 10 µM
O=C1N(c2ccccc2)CCC1(O)CNCc1ccc(F)cc1 (centres unmarked) [B45, 3-[(4-Fluorobenzylamino)-methyl]-3-hydroxy-1-phenyl-pyrrolidin-2-one]	1 to 10 µM
O=C1N(c2ccccc2)CCC1(O)CNCCc1ccc(F)cc1 (centres unmarked) [B47, 3-{[2-(4-Fluorophenyl)-ethylamino]methyl}-3-hydroxy-1-phenylpyrrolidin-2-one]	1 to 10 µM
O=C1N(c2ccccc2)CCC1(O)CNCc1cccc(F)c1 (centres unmarked) [B48, 3-[(3-Fluorobenzylamino)-methyl]-3-hydroxy-1-phenyl-pyrrolidin-2-one]	1 to 10 µM
O=C1CCc2cc(NC(=O)C3(O)CCN(c4ccc5c(c4)CCC(=O)N5)C3=O)ccc2N1 (centres unmarked) [B50, N-(2-Oxo-1,2,3,4-tetrahydro-quinolin-6-yl)-3-hydroxy-2-oxo-1-(2-oxo-1,2,3,4-tetrahydro-quinolin-6-yl)pyrrolidine-3-carboxamide]	> 10 µM
CC(C)(C)OC(=O)N1CCC(O)(C(=O)OCc2ccccc2)C1=O (centres unmarked) [B51, 3-Benzyl 1-tert-butyl 3-hydroxy-2-oxopyrrolidine-1,3-dicarboxylate]	> 10 µM
CC(C)OC(=O)C1(O)CCN(C(=O)OCc2ccccc2)C1=O (centres unmarked) [B53, 1-Benzyl 3-isopropyl 3-hydroxy-2-oxopyrrolidine-1,3-dicarboxylate]	> 10 µM
O=C1N(Cc2ccccc2)CCC[C@@]1(O)CNCc1cc(F)cc(Cl)c1 [B55, (R)-1-Benzyl-3-[(3-chloro-5-fluorobenzylamino)methyl]-3-hydroxypiperidin-2-one]	1 to 10 µM
O=C1CCc2cc(N3CC[C@@](O)(C(=O)NCc4cccc(F)c4)C3=O)ccc2N1 [B57, N-(3-Fluorobenzyl)-(R)-3-hydroxy-2-oxo-1-(2-oxo-1,2,3,4-tetrahydroquinolin-6-yl)-pyrrolidine-3-carboxamide]	> 10 µM
O=C1N(c2ccccc2)CC[C@@]1(O)CNCc1cc(F)cc(Cl)c1 [B58, (R)-3-[(3-Chloro-5-fluorobenzylamino)methyl]-3-hydroxy-1-phenylpyrrolidin-2-one]	1 to 10 µM
Cc1cc2cc(N3CC[C@@](O)(C(=O)NCc4cc(F)cc(Cl)c4)C3=O)cnc2[nH]1 [B61, N-(3-Chloro-5-fluorobenzyl)-(R)-3-hydroxy-1-(2-methyl-1H-pyrrolo[2,3-b]pyridin-5-yl)-2-oxo-pyrrolidine-3-carboxamide]	1 to 10 µM
O=C1N(CC2CCCCC2)CCC[C@@]1(O)CNCc1cc(F)cc(Cl)c1 [B64, (R)-3-[(3-Chloro-5-fluorobenzylamino)methyl]-1-cyclohexylmethyl-3-hydroxy-piperidin-2-one]	> 10 µM
O=C(NCc1cc(F)cc(Cl)c1)C1(O)CCCN(c2cc(C(F)(F)F)ccc2F)C1=O (centres unmarked) [B67, N-(3-Chloro-5-fluorobenzyl)-1-(2-fluoro-5-trifluoromethyl-phenyl)-3-hydroxy-2-oxo-piperidine-3-carboxamide]	1 to 10 µM
O=C1CCc2cc(N3CCCC(O)(CNCc4cc(F)cc(Cl)c4)C3=O)ccc2N1 (centres unmarked) [B68, 6-{3-[(3-Chloro-5-fluorobenzylamino)methyl]-3-hydroxy-2-oxopiperidin-1-yl}-3,4-dihydro-1H-quinolin-2-one]	1 to 10 µM
O=C(NCc1cc(F)cc(Cl)c1)[C@]1(O)CCN(c2ccc3[nH]cc(C(F)(F)F)c3c2)C1=O [B73, N-(3-Chloro-5-fluorobenzyl)-(R)-3-hydroxy-2-oxo-1-(3-trifluoro-methyl-1H-indol-5-yl)pyrrolidine-3-carboxamide]	> 10 µM
O=C(NCc1cc(F)cc(Cl)c1)C1(O)CCN(c2cnc3[nH]c(C(F)(F)F)cc3c2)C1=O (centres unmarked) [B76, N-(3-Chloro-5-fluorobenzyl)-3-hydroxy-2-oxo-1-(2-trifluoro-methyl-1H-pyrrolo[2,3-b]pyridin-5-yl)pyrrolidine-3-carboxamide]	0.01 to 1 µM
O=C(NCc1cc(F)cc(Cl)c1)[C@@]1(O)CCN(c2ccc3[nH]c(=O)sc3c2)C1=O [B77, N-(3-Chloro-5-fluorobenzyl)-(S)-3-hydroxy-2-oxo-1-(2-oxo-2,3-dihydrobenzothiazol-6-yl)-pyrrolidine-3-carboxamide]	0.01 to 1 µM
NC(=O)c1cc2cc(N3CC[C@](O)(C(=O)NCc4cc(F)cc(Cl)c4)C3=O)ccc2[nH]1 [B78, 5-[(S)-3-(3-Chloro-5-fluorobenzylcarbamoyl)-3-hydroxy-2-oxopyrrolidin-1-yl]-1H-indole-2-carboxamide]	0.01 to 1 µM
NC(=O)c1cc2cc(N3CC[C@@](O)(C(=O)NCc4cc(F)cc(Cl)c4)C3=O)ccc2[nH]1 [B79, 5-[(R)-3-(3-Chloro-5-fluorobenzylcarbamoyl)-3-hydroxy-2-oxopyrrolidin-1-yl]-1H-indole-2-carboxamide]	1 to 10 µM
CCOC(=O)c1cc2cc(N3CC[C@](O)(C(=O)NCc4cc(F)cc(Cl)c4)C3=O)ccc2[nH]1 [B80, Ethyl 5-[(S)-3-(3-chloro-5-fluorobenzylcarbamoyl)-3-hydroxy-2-oxopyrrolidin-1-yl]-1H-indole-2-carboxylate]	0.01 to 1 µM
CCOC(=O)c1cc2cc(N3CC[C@@](O)(C(=O)NCc4cc(F)cc(Cl)c4)C3=O)ccc2[nH]1 [B81, Ethyl 5-[(R)-3-(3-chloro-5-fluorobenzylcarbamoyl)-3-hydroxy-2-oxopyrrolidin-1-yl]-1H-indole-2-carboxylate]	> 10 µM
COCCn1cc(N2CCC(O)(C(=O)NCc3cc(F)cc(Cl)c3)C2=O)cn1 (centres unmarked) [B82, N-(3-Chloro-5-fluorobenzyl)-3-hydroxy-1-[1-(2-methoxyethyl)-1H-pyrazol-4-yl]-2-oxo-pyrrolidine-3-carboxamide]	0.01 to 1 µM

Continued, values first:

IC50	SMILES
0.01 to 1 µM	O=C1N(c2ccccc2)CCC1(O)CNCc1cc(F)cc(F)c1 (centres unmarked) [B46, 3-[(3,5-Difluorobenzylamino)-methyl]-3-hydroxy-1-phenyl-pyrrolidin-2-one]
0.01 to 1 µM	Cc1ccc(CNCC2(O)CCN(c3ccccc3)C2=O)cc1 (centres unmarked) [B49, 3-Hydroxy-3-[(4-methyl-benzylamino)methyl]-1-phenyl-pyrrolidin-2-one]
0.01 to 1 µM	O=C(NCc1cc(F)cc(Cl)c1)[C@@]1(O)CCN(c2cc(C(F)(F)F)ccn2)C1=O [B52, N-(3-Chloro-5-fluorobenzyl)-(S)-3-hydroxy-2-oxo-1-(4-trifluoromethylpyridin-2-yl)-pyrrolidine-3-carboxamide]
0.01 to 1 µM	O=C1N(Cc2ccccc2)CCC[C@]1(O)CNCc1cc(F)cc(Cl)c1 [B54, (S)-1-Benzyl-3-[(3-chloro-5-fluorobenzylamino)methyl]-3-hydroxypiperidin-2-one]
0.01 to 1 µM	O=C1CCc2cc(N3CC[C@](O)(C(=O)NCc4cccc(F)c4)C3=O)ccc2N1 [B56, N-(3-Fluorobenzyl)-(S)-3-hydroxy-2-oxo-1-(2-oxo-1,2,3,4-tetrahydroquinolin-6-yl)-pyrrolidine-3-carboxamide]
0.01 to 1 µM	O=C1N(c2ccccc2)CC[C@]1(O)CNCc1cc(F)cc(Cl)c1 [B59, (S)-3-[(3-Chloro-5-fluorobenzylamino)methyl]-3-hydroxy-1-phenylpyrrolidin-2-one]
0.01 to 1 µM	O=C(NCc1cc(F)cc(Cl)c1)[C@@]1(O)CCN(Cc2n[nH]c3ccccc23)C1=O [B60, N-(3-Chloro-5-fluorobenzyl)-(S)-3-hydroxy-1-(1H-indazol-3-ylmethyl)-2-oxopyrrolidine-3-carboxamide]
0.01 to 1 µM	Cc1cc2cc(N3CC[C@](O)(C(=O)NCc4cc(F)cc(Cl)c4)C3=O)cnc2[nH]1 [B62, N-(3-Chloro-5-fluorobenzyl)-(S)-3-hydroxy-1-(2-methyl-1H-pyrrolo[2,3-b]pyridin-5-yl)-2-oxo-pyrrolidine-3-carboxamide]
0.01 to 1 µM	O=C1N(CC2CCCCC2)CCC[C@]1(O)CNCc1cc(F)cc(Cl)c1 [B63, (S)-3-[(3-Chloro-5-fluorobenzylamino)methyl]-1-cyclohexylmethyl-3-hydroxy-piperidin-2-one]
0.01 to 1 µM	O=C(NCc1cc(F)cc(Cl)c1)[C@@]1(O)CCN(c2ccc(C(F)(F)F)cc2F)C1=O [B65, N-(3-Chloro-5-fluorobenzyl)-(S)-1-(2-fluoro-4-trifluoromethyl-phenyl)-3-hydroxy-2-oxo-pyrrolidine-3-carboxamide]
0.01 to 1 µM	Cc1ccc(N2CC[C@](O)(C(=O)NCc3cc(F)cc(Cl)c3)C2=O)c(F)c1 [B66, N-(3-Chloro-5-fluorobenzyl)-(S)-1-(2-fluoro-4-methylphenyl)-3-hydroxy-2-oxopyrrolidine-3-carboxamide]
0.01 to 1 µM	O=C1CCc2cc(CN3CCC(O)(C(=O)NCc4cc(F)cc(Cl)c4)C3=O)ccc2N1 (centres unmarked) [B69, N-(3-Chloro-5-fluorobenzyl)-3-hydroxy-2-oxo-1-(2-oxo-1,2,3,4-tetrahydroquinolin-6-ylmethyl)-pyrrolidine-3-carboxamide]
0.01 to 1 µM	NC(=O)c1ccc(F)c(N2CC[C@](O)(C(=O)NCc3cc(F)cc(Cl)c3)C2=O)c1 [B70, N-(3-Chloro-5-fluorobenzyl)-(S)-1-(5-carbamoyl-2-fluorophenyl)-3-hydroxy-2-oxopyrrolidine-3-carboxamide]
0.01 to 1 µM	O=C(NCc1cc(F)cc(Cl)c1)[C@@]1(O)CCN(c2ccc3[nH]c(=O)[nH]c3c2)C1=O [B71, N-(3-Chloro-5-fluorobenzyl)-(S)-3-hydroxy-2-oxo-1-(2-oxo-2,3-dihydro-1H-benzimidazol-5-yl)-pyrrolidine-3-carboxamide]
0.01 to 1 µM	O=C(NCc1cc(F)cc(Cl)c1)[C@@]1(O)CCN(c2ccc3[nH]cc(C(F)(F)F)c3c2)C1=O [B74, N-(3-Chloro-5-fluorobenzyl)-(S)-3-hydroxy-2-oxo-1-(3-trifluoro-methyl-1H-indol-5-yl)pyrrolidine-3-carboxamide]
0.01 to 1 µM	O=C(NCc1cc(F)cc(Cl)c1)[C@@]1(O)CCN(c2cnc3[nH]ncc3c2)C1=O [B75, N-(3-Chloro-5-fluorobenzyl)-(S)-3-hydroxy-2-oxo-1-(1H-pyrazolo[3,4-b]pyridin-5-yl)-pyrrolidine-3-carboxamide]
